The record followed here is patent publication US20170334919A1, “2-((4-AMINO-3-(3-FLUORO-5-HYDROXYPHENYL)-1H-PYRAZOLO[3,4-D]PYRIMIDIN-1 -YL)METHYL)-3-(2-(TRIFLUORO-MET HYL)BENZYL)QUINAZOLIN-4(3H)-ONE DERIVATIVES AND THEIR USE AS PHOSPHOINOSITIDE 3-KINASE INHIBITORS” (RESPIVERT LTD., priority 2013, published 2017).

Assay [1] relates to PI3K γ (Akt phosphorylation in d-U937 cells). The assay can be described thus: PI3K γ cell based assay: MCP-1-induced Akt phosphorylation in d-U937 cells. The settings on record: Homo sapiens, dU937; inhibition of induced Akt phosphorylation; read-out: Cellular Activity REC50 values in d-U937 cells, MCP-1 stimulus. The method, then:
As a means of assessing the activation of PI3K γ in response to stimuli, the phosphorylation status of the protein, Akt, a downstream product of PI3K γ signalling, was determined following stimulation with MCP-1.
U937 cells were differentiated to macrophage-type cells by incubation with PMA (100 ng/mL) for 48 to 72 hr. Cells were then pre-incubated with either the test compound or vehicle for 2 hr and were then stimulated briefly with MCP-1 (10 nM, 1 min) and the reaction stopped by replacing the media with 4% formaldehyde solution. […] After washing with buffer (PBS containing 0.1% Triton X-100), cells were incubated with an HRP-conjugated secondary antibody (Dako) and the resultant signal was determined colorimetrically (OD: 450 nm with a reference wavelength of 655 nm) using TMB substrate (substrate reagent pack supplied by R&D Systems, Inc.).
This reaction was stopped by addition of 1N H2SO4 solution (100 μL). […] After washing with buffer (PBS containing 0.1% Triton X-100) 1% SDS (100 μL) was added to each well and the plates were shaken lightly for 1 hr prior to measuring the absorbance at 595 nm (Varioskan® Flash, Thermo-Fisher Scientific). The measured OD450-655 readings were corrected for cell number by dividing the OD450-655 by the OD595 readings. The ratio of pAkt signal to total Akt signal was used to quantitate the extent of PI3K γ activation. […]

Assay [2] concerns neutrophils from COPD patients. The assay can be described thus: CXCL8 release from neutrophils obtained from COPD patients. The class given is cell-based. The settings on record: Homo sapiens, Neutrophil; read-out: REC50, TNFα-induced CXCL8 in neutrophils from COPD patients. The method, then: The effects of treatment on CXCL8 release from neutrophils obtained from COPD patients were evaluated by an ELISA assay. All patients were recruited by Quintiles Limited (London, UK), and blood samples were delivered to Respivert Ltd. This study was approved by the local Ethics Committee, and all subjects gave written informed consent. Whole blood (30 mL) was mixed gently with ACD (5 mL; comprising: 7.36 g citric acid, 14.71 g sodium citrate, 9.91 g dextrose in 250 ml sterile, double distilled water) and 6% dextran (15 mL; diluted in 0.9% NaCl) to remove the red blood cells. The tubes were incubated at RT for 45 min, and the supernatant (white cell rich fraction) was then collected, leaving the red blood cells.
This fraction was centrifuged (10 min at 1200 rpm, 4° C.) with low braking. The supernatant was aspirated and the pellet was re-suspended in ice-cold, sterile double distilled H2O (10 mL), and 0.6 M KCl (4 mL) was added 30 seconds later. […]
Neutrophils were pre-incubated with test compounds or with DMSO vehicle for 1 hr and then stimulated with TNFα (10 ng/mL). Cell free supernatant was collected at 3 hr after TNFα stimulation, and CXCL8 was measured by ELISA using DuoSet ELISA development kit (R&D systems, Abingdon, UK). The IC50 values reported were determined from concentration-inhibition curves using XL-Fit (IDBS, Guildford, UK).

Assay [3] concerns ovalbumin-induced airway eosinophilia and neutrophilia in ovalbumin sensitized mice. The assay can be described thus: Ovalbumin-induced airway eosinophil and neutrophil accumulation in mice. The class given is in vivo, BALB/c mice. The settings on record: 2 hr prior to final OVA challenge. The method, then:
BALB/c mice (6-8 weeks old) were immunized with OVA (10 μg/mouse i.p.) on days 0 and 7. In order to elicit a local inflammatory response in the lung, mice were repeatedly challenged between days 13-15 with a nebulised solution of ovalbumin (10 mg/mL, 30 min exposure, De Vilibiss Ultraneb 2000). On day 17 each animal received via intra-tracheal administration of either vehicle or test compound 2 hr prior to the final OVA challenge. Animals were anaesthetized 8 hr later before undergoing a tracheotomy. BAL was obtained by instilling PBS (1 mL) into the lungs, which was then withdrawn. This procedure was repeated to provide approximately 2 mL of lavage fluid. Total cell numbers in the BALF samples were measured using a haemocytometer. Cytospin smears of the BALF samples were prepared by centrifugation at 200 rpm for 5 min at RT and stained using a DiffQuik stain system (Dade Behring) for differential cell counts. Cells were counted using oil immersion microscopy. Data is expressed as differential number of cells per mL of […] (mean±S.E.M).

On to `COCCOCCOCC#Cc1cccc2nc(Cn3nc(-c4cc(O)cc(F)c4)c4c(N)ncnc43)n(Cc3ccccc3C(F)(F)F)c(=O)c12` [Compound (I), 2-((4-Amino-3-(3-fluoro-5-hydroxyphenyl)-1H-pyrazolo[3,4-d]pyrimidin-1-yl)methyl)-5-(3-(2-(2-methoxyethoxy)ethoxy)prop-1-yn-1-yl)-3-(2-(trifluoromethyl)benzyl)quinazolin-4(3H)-one], for which the EC50 came out at 16.5 nM in assay [1] and 2.2 nM in assay [2]. The “Cell numbers in BALF, Eosinophils, % inhibition” value in assay [3] (0.05 mg/mL intra-tracheal) was 3.2 (20) %; in assay [3] (0.2 mg/mL intra-tracheal), 0.9 (85) %; in assay [3] (1 mg/mL intra-tracheal) it was 91%. The “Cell numbers in BALF, Neutrophils, % inhibition” value in assay [3] (0.05 mg/mL intra-tracheal) was 0.4 (18) %; in assay [3] (0.2 mg/mL intra-tracheal), 0.5 (70) %; in assay [3] (1 mg/mL intra-tracheal), 80%.
